“And” between values parts separate entries of the source, which are not always exact repeats. Equal values may be shown once.
Experiments:
Format in all cases: in vivo
[1] = tested on: Two-spotted spider mite (Tetranychus uriticae), P-resistant origin; experiment: Two-spotted spider mite leaf dip test (TSMR A42); details: 300 ppm, lima bean, mixed life stages, five days
Procedure: (§1) Test compounds were prepared and formulated into aqueous formulations using acetone. The formulations were tested using the following target species: • SAW-L52-PRODER (southern armyworm), 2ND-3RD Instar Larvae, Leaf Dip, 4 days • CA-H43-APHIGO (cotton aphid), Mixed Life Stages, Leaf Dip • BA-H40-APHIFA (black bean aphid), Mixed Life Stages, Plant Drench • GPA-H52-MYZUPE (green peach aphid), Mixed Life Stages, Leaf Dip • SLWF-H45-BEMIAR (silver leaf whitefly), Adult, Leaf Dip • TSMR-A42-TETRUR (two-spotted spider mite, P-resistant origin), Mixed Life Soges, Leaf Dip
Test Procedures for Two-spotted spider mite (Tetranychus uriticae) TSM—leaf-dip:
Selected lima bean plants (one plant per pot), grown to the first leaf pair with a span of 7-12 cm. Placed sections of a heavily infested leaf (laboratory reared mites) an the test plants. Allowed the mites to transfer from the leaf sections to the test plants (at least two houss) to provide at least 100 mites per leaf. Removed the leaf sections from the test plants prior to dipping.
Prepared test solutions as needed in 50:50 acetone:water and 100 ppm Kinetic® surfactant. Dipped the infested leaves of the intact plant into the test solution to provide complete coverage of the leaf surfaces. Placed in a well-vented area to dry. […]

[2] = tested on: Cotton aphid (Aphis gossypii); experiment: Cotton aphid leaf dip test (CA H43); details: mixed life stages
Procedure: as §1
Test Procedures for Cotton aphid (Aphis gossypii) (CA—leaf dip):
Selected cotton plants to the cotyledon stage (one plant per pot). Placed one heavily infested cotyledon pair, hosting approximately 100 laboratory-reared aphids, an top of each test plant. Allowed the aphids to transfer to the test plants (overnight). Removed the drying cotyledons from the test plants prior to dipping.
Prepared test solutions as needed in 50:50 acetone: water and 100 ppm Kinetic® surfactant. Dipped the infested leaves of the intact plant into the test solution to provide complete coverage of the leaf surfaces. Placed in a well-vented area to dry.

Bean aphid (Aphis fabae) = experiment: Bean aphid test on nasturtium seedlings (BA H40); design: key to BA H40 observation (feeding): R = Reduced feeding, regardless of cause (e.g., repellent effects); details: 3 days; for BA H40 activity rating: mixed life stages
Procedure: as §1
Test Procedures for Bean aphid (Aphis fabae) (BA—Foliar):
Transferred approximately 5-day-old nasturtium seedlings (at the state of unfolded cotyledons), grown in Metro mix in propagation trays in the greenhouse, to Rootcubes, which were held in propagation trays Pressed the seed (still attached to the seedling) in the central depression of each cube. Held transferred seedlings for approximately 3 days in the greenhouse for expansion of the cotyledons.
In the insecticide screening laboratory, infested the seedlings. Positioned a paint roller screen above the 72 plants in each tray so that the screen was in contact with the foliage of the test plants. Spread approximately 50 infested nasturtium stems and leaves (from approximately 2-3 peat pots of insectary-reared aphids) an each screen. Kept the trag with the seedlings sitting in about ½ in. water overnight in the laboratory (leaving lights in lab on). Migration of aphids to the test plants occurred by morning. Removed the screen with drying leaves from the trays of test plants and discarded the leaves.
Prepared test solutions as needed in 50:50 acetone:water and 100 ppm Kinetic® surfactant. Selected plants to dip that had approximately 2-30 aphids per plant. Dipped each plant into the test solution to provide complete coverage of the foliage, stem, protruding seed surface and surrounding cube surface. Kept treated plants in the fume hood to dry. For routine screening, used one plant/treatment.
Placed treated plants in bioassay trays, 1 plant/well. Added water to fill each well. This allowed the plants to be watered from the roots, not interfering with the foliar treatment, and reduced potential migration of aphids between treatments. Kept treated plants at room temperature an the insecticide screening lab bench with continuous fluorescent light for 3 days.

[3] = tested on: Green peach aphid (Myzus persicae); experiment: Green peach aphid leaf dip test (GPA H52); details: pepper, mixed life stages, five days
Procedure: as §1
Test Procedures for GPA—Green peach aphid (Myzus persicae)—Leaf Dip:
Selected pepper plants (one plant per pot) in the second leaf-pair stage, with the 1st leaf-pair measuring 6-10 cm from tip to tip. Removed the cotyledons. Placed infested pepper leaves or leaf sections on top of the test plants, allowing for approximately 60 laboratory-reared aphids per plant. Allowed the aphids to transfer from the leaf sections to the test plants (overnight) to reach a density of at least 40 aphids per plant, then removed the leaf sections.
Prepared test solutions as needed in 50:50 acetone:water and 100 ppm Kinetic® surfactant (STP#1A). Dipped the leaves of the infested plant into the test solution to provide complete coverage of the leaf surfaces. Placed in a well-vented area to dry. Test plants were maintained under fluorescent light (24 hour photoperiod) at 25±2° C. and 20-40% relative humidity for five days, at which time aphid survival was determined (see Table 1a).

Row | Structure (SMILES) | TSMR A42 activity rating [1] | CA H43 activity rating ([2]; 10 ppm) | CA H43 activity rating ([2]; 100 ppm) | CA H43 activity rating ([2]; 300 ppm) | BA H40 activity rating (Bean aphid (Aphis fabae); 10 ppm) | BA H40 observation (feeding) (Bean aphid (Aphis fabae); 100 ppm) | BA H40 activity rating (Bean aphid (Aphis fabae); 100 ppm) | BA H40 observation (feeding) (Bean aphid (Aphis fabae); 300 ppm) | BA H40 activity rating (Bean aphid (Aphis fabae); 300 ppm) | GPA H52 activity rating ([3]; 10 ppm) | GPA H52 activity rating ([3]; 100 ppm) | GPA H52 activity rating ([3]; 300 ppm)
1 | C#CCNS(=O)(=O)c1cnccc1C(F)(F)F [Compound 1, 4-Trifluoromethyl-pyridine-3-sulfonic acid prop-2-ynylamide] | 0 (0 = 0-25% reduction of live population vs. check) | 0 (0 = 0-25% reduction of live population vs. check) | 8 (8 = 86-99% reduction of live population vs. check) | 8 (8 = 86-99% reduction of live population vs. check) | 0^ (0 = 0-25% reduction of live population vs. check) | R | 5 (5 = 50-74% reduction of live population vs. check) | R | 8 (8 = 86-99% reduction of live population vs. check) | 0 (0 = 0-25% reduction of live population vs. check) | 7 (7 = 75-85% reduction of live population vs. check) | 8 (8 = 86-99% reduction of live population vs. check)
2 | N#CCNS(=O)(=O)c1cnccc1C(F)(F)F [Compound 2, 4-Trifluoromethyl-pyridine-3-sulfonic acid cyanomethyl-amide] | 0 (0 = 0-25% reduction of live population vs. check) | 0 (0 = 0-25% reduction of live population vs. check) | 8 (8 = 86-99% reduction of live population vs. check) | 9 (9 = 100% reduction of live population vs. check) | 0^ (0 = 0-25% reduction of live population vs. check) | R | 0 (0 = 0-25% reduction of live population vs. check) | R | 7 (7 = 75-85% reduction of live population vs. check) | 0 (0 = 0-25% reduction of live population vs. check) | 3 (3 = 25-49% reduction of live population vs. check) | 8 (8 = 86-99% reduction of live population vs. check) and 5 (5 = 50-74% reduction of live population vs. check)
